Assay results published in patent publication US20250127913A1, “BIFUNCTIONAL FOLATE RECEPTOR BINDING COMPOUNDS” (LYCIA THERAPEUTICS, INC., priority 2021, published 2025).

Tests used:
FOLR2 = FOLR2 (Homo sapiens (Human), UniProt P14207); assay: SPR binding kinetics of compounds to folate receptor (FOLR2 immobilized on CM5 chip)
Description: A Biacore 8K+ was used to measure the association and dissociation rates of example compounds to FOLR2 (Acro Biosystems, Cat: F02-H5223-100 μg). Briefly, FOLR2 was reconstituted according to the manufacture's instructions to 200 μg/mL. Both the active and reference surfaces of a Cytiva CM5 Series S Sensor Chip were activated with a 1:1 mixture of 400 mM EDC and 100 mM NHS for 420 s at 10 μL/min. 25 μg/mL FOLR2 diluted in Sodium Acetate pH 5.5 was injected on the active channel (Flow Cell 2) for 420 s at 10p/min. Both the reference and active surfaces were then capped with 1M ethanolamine, pH 8.5 for 420 s, achieving an immobilization level of ˜4200 RU. Example compounds were serially diluted 1:1 in running buffer (10 mM HEPES, 150 mM NaCl, 0.05% T20, pH 7.5, 2% DMSO) from 100 nM to 3.125 nM and flowed over the active and reference surfaces for 120 s, and then allowed to dissociate in running buffer for 600 s, at 30 uL/min. The FOLR2 immobilized active surface and the reference surface were regenerated with a 30 s pulse of Sodium Acetate pH 5.5 at 30 μL/min. Sensorgrams were solvent corrected, double-referenced, and the data fitted and analyzed in Biacore Insight Evaluation Software Version 3.0.11.15423.

TNFα trimer = TNFα trimer (Homo sapiens, UniProt P01375); assay: SPR binding kinetics of compounds to TNFα trimer; details: class symbols
THP-1 cells = assay: Compound mediated uptake of TNFα-pHrodo in THP-1 cells (flow cytometry); type: cell-based; design: key to Uptake in THP1 cells (run) 2 / Uptake in THP1 cells (run) 3 / Uptake in THP1 cells (run) 4: + = ΔMFI less than that of I-17; ++ = ΔMFI ≈ to that of I-17; +++ = ΔMFI greater than that of I-17; details: ΔMFI compared with I-17, uptake at 10 μM
[1] = system: TNFα trimer complex to folate receptor (FOLR2); assay: SPR co-engagement of compound-TNFα trimer complex to folate receptor; details: TNFα + 10 nM compound binding FOLR2
Description: The active (Flow cell 2) surfaces of a Cytiva CM5 Series S Sensor Chip functionalized with FOLR2 as described in Example 58. Example compounds were diluted to 10 nM with 50 and 100 nM TNFα single chain trimer or 150 nM and 300 nM TNFα native monomer in running buffer (10 mM HEPES, 150 mM NaCl, 0.05% T20, pH 7.5, 2% DMSO), allowed to incubate for 5 hours at 25° C. and then flowed over the active and reference surfaces for 110 s, and then allowed to dissociate in running buffer for 600 s, at a flow rate of 30 μL/min. The FOLR2 immobilized active surface and the reference surface were regenerated with a 30 s pulse of 4M MgCl2 at 30 μL/min then allowed to equilibrate 240 s. Sensorgrams were solvent corrected, double-referenced, and the data fitted and analyzed in Biacore Insight Evaluation Software Version 3.0.11.15423.

FOLR2, sequence (P14207 17-255): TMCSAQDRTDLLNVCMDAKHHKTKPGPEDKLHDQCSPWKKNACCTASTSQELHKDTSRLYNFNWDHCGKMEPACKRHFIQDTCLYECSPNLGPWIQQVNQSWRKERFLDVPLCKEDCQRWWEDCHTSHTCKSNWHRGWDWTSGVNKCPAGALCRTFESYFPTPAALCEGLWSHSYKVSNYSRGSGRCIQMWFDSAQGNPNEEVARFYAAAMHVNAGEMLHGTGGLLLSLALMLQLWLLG
TNFα trimer, sequence (P01375 77-233 limits assumed): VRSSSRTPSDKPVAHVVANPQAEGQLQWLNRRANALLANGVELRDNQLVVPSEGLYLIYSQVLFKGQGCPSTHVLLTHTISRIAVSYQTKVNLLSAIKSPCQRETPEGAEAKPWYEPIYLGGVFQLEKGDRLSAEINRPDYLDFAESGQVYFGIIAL

Structure (SMILES)	Kd (FOLR2)	Kd (TNFα trimer)	Uptake in THP1 cells (run) 3 (THP-1 cells)	Uptake in THP1 cells (run) 4 (THP-1 cells)	co-engagement / complex formation observed on SPR [1]	Uptake in THP1 cells (run) 2 (THP-1 cells)
Cc1nc2cc(F)c(-c3cnc(OCCCCCn4cc(COCCNC(=O)CC[C@H](NC(=O)c5ccc(NCc6cnc7nc(N)nc(O)c7n6)cc5)C(=O)O)nn4)nc3)nc2c(N[C@H](C)c2cc(C#N)ccc2F)c1Cl [Compound I-15, N2-(4-(((2-amino-4-hydroxypteridin-6-yl)methyl)amino)benzoyl)-N5-(2-((1-(5-((5-(7-chloro-8-((I-1-(5-cyano-2-fluorophenyl)ethyl)amino)-3-fluoro-6-methyl-1,5-naphthyridin-2-yl)pyrimidin-2-yl)oxy)pentyl)-1H-1,2,3-triazol 4-yl)methoxy)ethyl)-L-glutamine]	0.3 nM	< 100 nM	+++	++	complex formation observed	
Cc1nc2cc(F)c(-c3cnc(OCCCCCn4cc(COCCOCCOCCOCCOCCOCCNC(=O)CC[C@H](NC(=O)c5ccc(NCc6cnc7nc(N)nc(O)c7n6)cc5)C(=O)O)nn4)nc3)nc2c(N[C@H](C)c2cc(C#N)ccc2F)c1Cl [Compound I-18, (S)-24-(4-(((2-amino-4-hydroxypteridin-6-yl)methyl)amino)benzamido)-1-(1-(5-((5-(7-chloro-8-((I-1-(5-cyano-2-fluorophenyl)ethyl)amino)-3-fluoro-6-methyl-1,5-naphthyridin-2-yl)pyrimidin-2-yl)oxy)pentyl)-1H-1,2,3-triazol-4-yl)-21-oxo-2,5,8,11,14,17-hexaoxa-20-azapentacosan-25-oic acid]	0.4 nM	< 100 nM	++	+++	complex formation observed	+++
Cc1nc2cc(F)c(-c3cnc(OCCCCCn4cc(COCCOCCOCCOCCOCCOCCOCCOCCOCCOCCNC(=O)CC[C@H](NC(=O)c5ccc(NCc6cnc7nc(N)nc(O)c7n6)cc5)C(=O)O)nn4)nc3)nc2c(N[C@H](C)c2cc(C#N)ccc2F)c1Cl [Compound I-20, (S)-36-(4-(((2-amino-4-hydroxypteridin-6-yl)methyl)amino)benzamido)-1-(1-(5-((5-(7-chloro-8-(((R)-1-(5-cyano-2-fluorophenyl)ethyl)amino)-3-fluoro-6-methyl-1,5-naphthyridin-2-yl)pyrimidin-2-yl)oxy)pentyl)-1H-1,2,3-triazol-4-yl)-33-oxo-2,5,8,11,14,17,20,23,26,29-decaoxa-32-azaheptatriacontan-37-oic acid]	0.2 nM	< 1000 nM	+	++	complex formation observed	+++
